Measurements: the supplement of paper PMC11061612

Key:
Experiment in all cases: Bliss excess, mean over the matrix (fraction); higher = more synergy
[1] = test system: RO82-W-1 (Thyroid Gland Carcinoma)
Method in brief: (§1)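 Cell lines grown in DMEM/F12 or RPMI with 10% FBS were plated in 1536-well plates and held 24 hours at 37°C, 5% CO2 before 72 hours of exposure to two-drug dose matrices, with DMSO typically at 0.2%. CellTiter-Glo 2.0 luminescence gave viability, which was converted to inhibition. Vehicle wells were set to 0 and blank wells to 1. Combination Emax is the second-highest inhibition in the matrix, and Bliss excess is the observed combination effect minus the expected EA + EB − EA·EB, where EA and EB are the single-agent effects.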

[2] = test system: Ramos-2G6-4C10 (Burkitt's Lymphoma)
Method in brief: as §1

[3] = test system: LS-180 (Colorectal Carcinoma)
Method in brief: as §1

[4] = test system: LB831-BLC (Bladder Carcinoma)
Method in brief: as §1

[5] = test system: NB10 (Neuroblastoma)
Method in brief: as §1

[6] = test system: CCRF-CEM (T-Lymphoblastic Leukemia)
Method in brief: as §1

[7] = test system: TE-15 (Esophageal Squamous Cell Carcinoma)
Method in brief: as §1

[8] = test system: CAL-148 (Breast Carcinoma)
Method in brief: as §1

[9] = test system: Calu-3 (Lung Adenocarcinoma)
Method in brief: as §1

[10] = test system: ME-1 (Acute Myeloid Leukemia)
Method in brief: as §1

[11] = test system: Hs-578-T (Breast Carcinoma)
Method in brief: as §1

[12] = test system: UM-UC-3 (Bladder Carcinoma)
Method in brief: as §1

[13] = test system: HCC-78 (Lung Adenocarcinoma)
Method in brief: as §1

[14] = test system: TE-9 (Esophageal Squamous Cell Carcinoma)
Method in brief: as §1

[15] = test system: T98G (Glioblastoma)
Method in brief: as §1

[16] = test system: HOS (Osteosarcoma)
Method in brief: as §1

[17] = test system: NCI-H2085 (Non-Small Cell Lung Carcinoma)
Method in brief: as §1

[18] = test system: DoTc2-4510 (Cervical Carcinoma)
Method in brief: as §1

[19] = test system: CaR-1 (Colorectal Carcinoma)
Method in brief: as §1

[20] = test system: NCI-H82 (Small Cell Lung Carcinoma)
Method in brief: as §1

Row | SMILES | Bliss excess [1] | Bliss excess [2] | Bliss excess [3] | Bliss excess [4] | Bliss excess [5] | Bliss excess [6] | Bliss excess [7] | Bliss excess [8] | Bliss excess [9] | Bliss excess [10] | Bliss excess [11] | Bliss excess [12] | Bliss excess [13] | Bliss excess [14] | Bliss excess [15] | Bliss excess [16] | Bliss excess [17] | Bliss excess [18] | Bliss excess [19] | Bliss excess [20]
1 | C=CCn1c(=O)c2cnc(Nc3ccc(N4CCN(C)CC4)cc3)nc2n1-c1cccc(C(C)(C)O)n1 [AZD1775] + CCc1c2c(nc3ccc(O)cc13)-c1cc3c(c(=O)n1C2)COC(=O)[C@]3(O)CC [SN-38] (first compound max 1 µM, partner max 0.3 µM) | -0.0352 | 0.0943 | -0.115 | 0.0518 | -0.141 | -0.0423 | -0.0211 | -0.0022 | -0.0341 | -0.0047 | 0.0934 | -0.0431 | 0.0002 | -0.0022 | 0.0057 | -0.0934 | -0.0202 | -0.0173 | -0.0429 | -0.0569
2 | C=CCn1c(=O)c2cnc(Nc3ccc(N4CCN(C)CC4)cc3)nc2n1-c1cccc(C(C)(C)O)n1 [AZD1775] + Nc1ccn([C@@H]2O[C@H](CO)[C@@H](O)C2(F)F)c(=O)n1 [Gemcitabine] (first compound max 1 µM, partner max 0.3 µM) | -0.0271 | 0.186 | -0.0906 | 0.0909 | 0.0509 | 0.0584 | 0.042 | 0.0035 | -0.013 | -0.0044 | 0.045 | 0.0758 | 0.0795 | -0.0253 | 0.0257 | 0.0754 | 0.032 | 0.033 | -0.0001 | -0.0404
3 | CN(CCO)CC[C@H](CSc1ccccc1)Nc1ccc(S(=O)(=O)NC(=O)c2ccc(N3CCC([C@@H](O)c4ccccc4-c4ccc(Cl)cc4)CC3)cc2)cc1S(=O)(=O)C(F)(F)F [AZD4320] + CC(=O)O[C@H]1C(=O)[C@@]2(C)[C@H]([C@H](OC(=O)c3ccccc3)[C@]3(O)C[C@H](OC(=O)[C@H](O)[C@@H](NC(=O)c4ccccc4)c4ccccc4)C(C)=C1C3(C)C)[C@]1(OC(C)=O)CO[C@@H]1C[C@@H]2O [Paclitaxel] (first compound max 1 µM, 7x7, partner max 3 µM) | 0.332 | -0.151 | -0.0382 | 0.104 | 0.0462 | -0.0072 | 0.0118 | 0.0761 | -0.0045 | 0.0994 | 0.047 | 0.192 | 0.168 | 0.0929 | 0.0613 | 0.184 | 0.207 | 0.111 | 0.0892 | -0.0552
4 | CN(CCO)CC[C@H](CSc1ccccc1)Nc1ccc(S(=O)(=O)NC(=O)c2ccc(N3CCC([C@@H](O)c4ccccc4-c4ccc(Cl)cc4)CC3)cc2)cc1S(=O)(=O)C(F)(F)F [AZD4320] + CS(=O)(=O)CCNCc1ccc(-c2ccc3ncnc(Nc4ccc(OCc5cccc(F)c5)c(Cl)c4)c3c2)o1 [Lapatinib] (first compound max 1 µM, 7x7, partner max 10 µM) | 0.0002 | 0.117 | -0.0521 | 0.0245 | -0.0204 | 0.0305 | -0.0004 | -0.0411 | 0.0224 | 0.0937 | 0.0188 | 0.0099 | -0.0248 | 0.0137 | 0.0029 | -0.0381 | 0.019 | 0.051 | -0.0122 | 0.0747
5 | CN(CCO)CC[C@H](CSc1ccccc1)Nc1ccc(S(=O)(=O)NC(=O)c2ccc(N3CCC([C@@H](O)c4ccccc4-c4ccc(Cl)cc4)CC3)cc2)cc1S(=O)(=O)C(F)(F)F [AZD4320] + Nc1ccn([C@@H]2O[C@H](CO)[C@@H](O)C2(F)F)c(=O)n1 [Gemcitabine] (first compound max 1 µM, 7x7, partner max 0.3 µM) | -0.0237 | -0.0368 | -0.0907 | -0.0192 | -0.0457 | 0.0061 | 0.0164 | 0.0502 | 0.0076 | 0.0049 | 0.14 | -0.0229 | -0.0215 | 0.0151 | -0.0265 | 0.0045 | 0.0228 | 0.0764 | 0.0125 | 0.016
6 | Cc1c2c(nn1C)CSCc1cc(n(C)n1)CSc1cc(c3ccccc3c1)OCCCc1c(C(=O)O)n(C)c3c-2c(Cl)ccc13 [AZD5991] + CC(=O)O[C@H]1C(=O)[C@@]2(C)[C@H]([C@H](OC(=O)c3ccccc3)[C@]3(O)C[C@H](OC(=O)[C@H](O)[C@@H](NC(=O)c4ccccc4)c4ccccc4)C(C)=C1C3(C)C)[C@]1(OC(C)=O)CO[C@@H]1C[C@@H]2O [Paclitaxel] (first compound max 1 µM, 7x7, partner max 3 µM) | -0.023 | -0.104 | -0.033 | 0.0261 | 0.0264 | -0.0339 | 0.0224 | 0.0436 | -0.0064 | -0.0368 | 0.0368 | -0.0693 | 0.11 | 0.0317 | -0.0798 | 0.103 | 0.0904 | -0.0508 | 0.038 | -0.0392
7 | Cc1c2c(nn1C)CSCc1cc(n(C)n1)CSc1cc(c3ccccc3c1)OCCCc1c(C(=O)O)n(C)c3c-2c(Cl)ccc13 [AZD5991] + CS(=O)(=O)CCNCc1ccc(-c2ccc3ncnc(Nc4ccc(OCc5cccc(F)c5)c(Cl)c4)c3c2)o1 [Lapatinib] (first compound max 1 µM, 7x7, partner max 10 µM) | -0.0357 | 0.0153 | 0.0651 | -0.0215 | -0.0197 | -0.0676 | -0.012 | 0.0041 | 0.0244 | -0.0089 | -0.0984 | -0.001 | -0.0167 | -0.0218 | -0.0233 | -0.0365 | 0.0494 | -0.0004 | 0.0071 | -0.0161
8 | Cc1c2c(nn1C)CSCc1cc(n(C)n1)CSc1cc(c3ccccc3c1)OCCCc1c(C(=O)O)n(C)c3c-2c(Cl)ccc13 [AZD5991] + Nc1ccn([C@@H]2O[C@H](CO)[C@@H](O)C2(F)F)c(=O)n1 [Gemcitabine] (first compound max 1 µM, 7x7, partner max 0.3 µM) | -0.0453 | 0.0162 | -0.061 | -0.0443 | -0.0006 | -0.0164 | 0 | 0.122 | -0.0191 | -0.0612 | 0.0298 | -0.0402 | -0.0102 | -0.0201 | 0.0127 | 0.0054 | -0.021 | -0.0282 | -0.0383 | 0.003
9 | C[C@@H]1COCCN1c1cc(C2([S@](C)(=N)=O)CC2)nc(-c2ccnc3[nH]ccc23)n1 [AZD6738] + C1CC(C1)(C(=O)[O-])C(=O)[O-].N.N.[Pt+2] [Carboplatin] (first compound max 10 µM, 7x7, partner max 10 µM) | -0.0333 | -0.0421 | 0.0068 | -0.051 | -0.0562 | -0.0161 | -0.0208 | -0.11 | -0.0397 | -0.0565 | -0.0559 | -0.0213 | -0.0401 | -0.0215 | -0.0401 | -0.0209 | -0.067 | -0.0562 | -0.0464 | -0.117
10 | Cc1cc2ncnn2cc1Nc1ncc2c(n1)n(C1CCOCC1)c(=O)n2C [AZD7648] + COc1cc([C@@H]2c3cc4c(cc3[C@@H](O[C@@H]3O[C@@H]5CO[C@@H](C)O[C@H]5[C@H](O)[C@H]3O)[C@H]3COC(=O)[C@H]23)OCO4)cc(OC)c1O [Etoposide] (first compound max 10 µM, 7x7, partner max 10 µM) | 0.0049 | 0.0563 | 0.0183 | 0.103 | 0.0154 | 0.104 | 0.0823 | 0.163 | 0.1 | -0.0301 | 0.0777 | 0.105 | 0.0695 | 0.0158 | 0.12 | 0.0772 | 0.0734 | 0.116 | 0.0253 | 0.0583
11 | C[C@@H](Nc1cc(F)cc(F)c1)c1cc(C(=O)N(C)C)cc2c(=O)cc(N3CCOCC3)oc12 [AZD8186] + C1CN(CCC1(C(=O)N[C@@H](CCO)C2=CC=C(C=C2)Cl)N)C3=NC=NC4=C3C=CN4 [AZD5363] (first compound max 10 µM, 7x7, partner max 10 µM) | -0.0132 | -0.0898 | -0.0425 | -0.0398 | -0.0398 | 0.007 | 0.0126 | -0.0019 | 0.0001 | -0.052 | -0.0815 | 0.0454 | 0.0408 | -0.0405 | 0.0381 | -0.0447 | -0.045 | -0.0017 | 0.0054 | -0.0759
12 | C[C@@H](Nc1cc(F)cc(F)c1)c1cc(C(=O)N(C)C)cc2c(=O)cc(N3CCOCC3)oc12 [AZD8186] + CC(=O)c1c(C)c2cnc(Nc3ccc(N4CCNCC4)cn3)nc2n(C2CCCC2)c1=O [Palbociclib] (first compound max 10 µM, 7x7, partner max 10 µM) | 0.033 | -0.0328 | 0.0004 | -0.0414 | 0.0425 | -0.0167 | -0.0044 | 0.033 | -0.0036 | 0.0065 | -0.0091 | 0.131 | 0.0329 | -0.0589 | 0.0744 | -0.0227 | 0.0565 | -0.0639 | -0.0054 | -0.0338
13 | N#Cc1cnc(Nc2cc(NC[C@H]3CNCCO3)c(C(F)(F)F)cn2)cn1 [SRA737] + C=CCn1c(=O)c2cnc(Nc3ccc(N4CCN(C)CC4)cc3)nc2n1-c1cccc(C(C)(C)O)n1 [AZD1775] (first compound max 10 µM, partner max 1 µM) | -0.0441 | 0.119 | 0.0475 | -0.0446 | 0.105 | 0.0688 | 0.0209 | 0.184 | 0.0228 | 0.0456 | 0.0771 | 0.0749 | 0.0611 | 0.0457 | 0.0169 | 0.06 |  | 0.074 | -0.0239 | 0.0115
14 | N#Cc1cnc(Nc2cc(NC[C@H]3CNCCO3)c(C(F)(F)F)cn2)cn1 [SRA737] + CCc1c2c(nc3ccc(O)cc13)-c1cc3c(c(=O)n1C2)COC(=O)[C@]3(O)CC [SN-38] (first compound max 10 µM, 7x7, partner max 0.3 µM) | -0.04 | 0.135 |  | 0.0497 | -0.141 | -0.034 | -0.0928 | -0.0602 | -0.0477 | 0.0352 | 0.114 | -0.0017 | -0.0447 | -0.0181 | 0.0065 | 0.0136 | -0.0053 | 0.0093 | -0.0711 | 0.0325
